# Active and inactive are the calls of the source. No cut-off for these calls is given here.
# Test system: Human immunodeficiency virus 1
# Experiment: Tested for activity against HIV in cell culture at concentration of 100 ug/mL; NA denotes no activity
# Type: functional, organism-based
row,SMILES,Activity
1,Cc1cn(N2CC(O)C(CO)C2)c(=O)[nH]c1=O (stereo not drawn),inactive
2,Cc1cn(N2CC(CO)C(N=[N+]=[N-])C2)c(=O)[nH]c1=O (stereo not drawn),inactive
3,Cc1cn(N2CC(F)C(CO)C2)c(=O)[nH]c1=O (stereo not drawn),inactive

# Source: ChEMBL document CHEMBL1125990, “Synthesis of novel 1-nitrogen replaced carbocyclic thymidine analogs as potential anti aids agents” (Bioorg Med Chem Lett, 1991)
